Reference: patent US11918565B1, “Treatment of post-operative pain via sciatic nerve block with sustained-release liposomal anesthetic compositions” (Pacira Pharmaceuticals, Inc., priority 2022, dated 2024)
Counter-ions that a name gives are not always drawn.

Experiments:
Type in all cases: in vivo, human
[1] = tested on: sciatic nerve (motor block) in subjects undergoing bunionectomy; assay: Pharmacodynamics: onset and duration of motor block (foot movement), clinical trial #1 Part A
Experimental: (§1) Clinical Study #1 was a Phase 3, multicenter, randomized, double-blind, active-controlled study in 180 subjects undergoing bunionectomy. Subjects received a sciatic (in the popliteal fossa) nerve block with a single dose of either EXPAREL 266 mg (EXP266), EXPAREL 133 mg (EXP133), or 0.25% bupivacaine HCl (50 mg; BUP50). The study was conducted in two parts (Part A and Part B). Part A was to be completed and analyzed before enrollment in Part B was initiated. Part A was a 3-arm cohort with 66 subjects undergoing bunionectomy to obtain information on pharmacokinetics (PK), pharmacodynamics (PD), efficacy, and safety. Subjects were randomized (1:1:1) to the EXP266, EXP133, and BUP50 treatment arms. Part B was a 2-arm cohort with 119 subjects undergoing bunionectomy to evaluate the efficacy and safety of EXPAREL compared with bupivacaine HCl. The dose of the EXPAREL arm in Part B was determined based on the interim analysis of the Part A cohort results.
(§2) On the day of surgery, subjects received an ultrasound-guided sciatic (in the popliteal fossa) nerve block with one of the following treatments: • EXP266 arm: subjects randomized to this treatment arm received 20 mL (266 mg) EXPAREL mixed with 10 mL saline (Part A only; per interim analysis was not selected for Part B) • EXP133 arm: subjects randomized to this treatment arm received 10 mL (133 mg) EXPAREL mixed with 20 mL saline (Part A and B) • BUP50 arm: subjects randomized to this treatment arm received 20 mL (50 mg) 0.25% bupivacaine HCl mixed with 10 mL saline (Part A and B)
(§3) Efficacy assessments included pain intensity scores focused on the operative foot using the Numeric Rating Scale (NRS), total postsurgical opioid consumption in OMED, time to first opioid consumption post-surgery, and percentage of opioid-free patients through 96 hours, and worst and average NRS pain intensity scores at 24 h, 48 h, 72 h, and 96 h from end of surgery. Additionally, blood samples for pharmacokinetic (PK) analysis (area under the curve [AUC], maximum plasma concentration [Cmax], time of maximum plasma concentration [Tmax], including early and late Cmax and Tmax (EXP133-ADMIX arm only), apparent terminal elimination half-life [t1/2el], apparent clearance [CL/F], and apparent volume of distribution [Vd/F]). Pharmacodynamic (PD) assessment data, including median time to onset of sensory block and motor block, and median duration of sensory and motor block were collected.
(§4) Pharmacodynamic endpoints included: onset of sensory block, offset of sensory block, duration of sensory block, onset of motor block, offset of motor block, and duration of motor block.

[2] = tested on: sciatic nerve (sensory block) in subjects undergoing bunionectomy; assay: Pharmacodynamics: onset and duration of sensory block, clinical trial #1 Part A
Experimental: as §1, §2, §3, §4

[3] = tested on: subjects undergoing bunionectomy (postsurgical pain, operative foot); assay: NRS pain intensity scores after sciatic (popliteal fossa) nerve block, Phase 3 clinical trial #1
Experimental: Clinical Study #1 was a Phase 3, multicenter, randomized, double-blind, active-controlled study in 180 subjects undergoing bunionectomy. Subjects received a sciatic (in the popliteal fossa) nerve block with a single dose of either […] 266 mg ([…] 133 mg (EXP133), or 0.25% bupivacaine HCl (50 mg; BUP50). The study was conducted in two parts (Part A and Part B). Part A was to be completed and analyzed before enrollment in Part B was initiated. Part A was a 3-arm cohort with 66 subjects undergoing bunionectomy to obtain information on pharmacokinetics (PK), pharmacodynamics (PD), efficacy, and safety. Subjects were randomized (1:1:1) to the EXP266, EXP133, and BUP50 treatment arms. Part B was a 2-arm cohort with 119 subjects undergoing bunionectomy to evaluate the efficacy and safety of […] compared with bupivacaine HCl. The dose of the […] arm in Part B was determined based on the interim analysis of the Part A cohort results. […] An unscheduled pain intensity assessment using the NRS (measured as “On a scale from 0 to 10, where 0 equals no pain and 10 equals the worst possible pain, how much pain are you experiencing in your operative foot right now?”) was to be completed immediately prior to administration of any breakthrough pain medication up to 96 h post-surgery. Medications were administered PRN; opioids were not to be given on a pre-determined schedule. […] All postsurgical analgesics administered, were to be recorded through hospital discharge. […]

[4] = EXP266 Part A, EXP133 and BUP50 Part A+B

With `CCCCN1CCCCC1C(=O)Nc1c(C)cccc1C` (stereo not shown) [BUP50, bupivacaine HCl] the “subjects without foot movement at the first time point with ≥50%” value ([1]; 1 h post-dose for EXP266, 2 h post-dose for EXP133 and BUP50) was 54.5%, the “subjects who still did not have complete foot movement” value ([1]; 84 h post-dose) was 18.2% and the “subjects with motor block onset observed” value ([1]; human, in vivo) was 40.9%. For the same molecule, the “first time point at which foot movement was not present in ≥50% of subjects” value ([1]; post-dose) was 2 h, the “subjects without sensation at the first time point with ≥50%” value ([2]; 30 min post-dose for BUP50, 2 h for EXP266 and EXP133) was 59.1% and the “subjects who still did not have complete sensation” value ([2]; 60 h post-dose) was “all BUP50 subjects had regained sensation”. The “median duration of sensory block” value ([2]; human, in vivo) was 29.10 h, the “median time to sensory block” value ([2]; human, in vivo) was 0.46 h and the “subjects with sensory block onset observed” value ([2]; human, in vivo) was 63.6%. The “first time point at which sensation was not present in ≥50% of subjects” value ([2]; post-dose) was 30 min, the “mean AUC of average pain over the last 24 h post-surgery from POD1 through POD4” value [3, 4] was 16.1 and the “mean AUC of worst pain over the last 24 h post-surgery from POD1 through POD4” value [3, 4] was 25.2. For the same molecule, the “time post-surgery at which mean current pain intensity peaked” value ([3]; post-surgery) was 36 h.
